Measurements published in publication PMC3665241, “Scaffold-Focused Virtual Screening: Prospective Application to the Discovery of TTK Inhibitors” (Journal of Chemical Information and Modeling, 2013).

Legend:
[1] = molecular target: T1, GST-tagged recombinant human full-length TTK protein kinase (Homo sapiens, UniProt P33981); experiment: TTK mobility shift microfluidics assay, single-concentration percent inhibition screen; type: biochemical; conditions: 12.5 nM TTK, 10 μM ATP, mean of duplicate ± SD
T1 construct: GST-tagged recombinant human full-length TTK protein kinase; purchased Invitrogen (Life Technologies Ltd., Paisley, U.K.)
T1 sequence (P33981 1-857): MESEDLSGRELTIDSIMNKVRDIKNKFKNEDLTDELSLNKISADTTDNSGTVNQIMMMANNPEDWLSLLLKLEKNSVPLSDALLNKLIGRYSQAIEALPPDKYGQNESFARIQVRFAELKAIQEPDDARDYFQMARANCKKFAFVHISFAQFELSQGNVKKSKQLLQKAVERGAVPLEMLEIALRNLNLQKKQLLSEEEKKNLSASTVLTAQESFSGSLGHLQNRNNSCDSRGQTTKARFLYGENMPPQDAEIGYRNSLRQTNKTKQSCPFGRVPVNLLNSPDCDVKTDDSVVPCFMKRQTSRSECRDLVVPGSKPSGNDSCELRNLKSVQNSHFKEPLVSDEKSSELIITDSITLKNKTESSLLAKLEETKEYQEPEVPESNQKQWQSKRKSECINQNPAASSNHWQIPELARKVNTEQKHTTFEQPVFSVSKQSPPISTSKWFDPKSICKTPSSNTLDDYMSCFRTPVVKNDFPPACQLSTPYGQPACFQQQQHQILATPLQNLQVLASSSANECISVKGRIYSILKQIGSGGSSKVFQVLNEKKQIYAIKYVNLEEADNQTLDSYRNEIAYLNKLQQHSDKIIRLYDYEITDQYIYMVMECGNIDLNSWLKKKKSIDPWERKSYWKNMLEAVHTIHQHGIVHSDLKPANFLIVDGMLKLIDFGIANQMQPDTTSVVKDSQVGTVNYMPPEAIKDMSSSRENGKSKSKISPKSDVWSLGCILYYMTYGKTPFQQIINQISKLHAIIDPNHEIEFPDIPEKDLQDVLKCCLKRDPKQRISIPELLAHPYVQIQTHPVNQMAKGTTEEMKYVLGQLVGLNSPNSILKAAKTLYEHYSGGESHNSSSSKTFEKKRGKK
Experimental: The TTK kinase activity was measured in a mobility shift microfluidics assay with the Caliper LabChip EZReader II (Caliper Life Sciences, Hopkinton, MA, U.S.A.). For the initial percent inhibition compound screen, all compounds were tested at 40 μM, and fragment-like compounds (MW < 300 Da) were also tested at 400 μM. A 2.14 μM stock of GST-tagged recombinant human full-length TTK protein kinase from Invitrogen (Invitrogen, Life Technologies Ltd., Paisley, U.K.) and custom synthesized peptide from Pepceuticals (Pepceuticals Ltd., Enderby, U.K.) with sequence 5-FAM-[…]-amide were used. […] For every 10 mL of stock buffer, one Roche EDTA free complete mini-protease inhibitor cocktail tablet (Roche, Basel, Switzerland) was added. TTK was used at a final concentration of 12.5 nM. The assay plate was sealed and incubated at room temperature for 60 min. The assay was stopped by addition of stop buffer which contained 100 mM HEPES (pH 7.3), 20 mM EDTA, and 0.05% (v/v) Brij-35. The assay plate was then analyzed using the EZReader II. Z′ for compounds at 40 μM was 0.48, and Z′ for compounds at 400 μM was 0.61.

[2] = molecular target: T1, GST-tagged recombinant human full-length TTK protein kinase; experiment: TTK mobility shift microfluidics assay, IC50 determination (3 nM TTK); type: biochemical
[3] = molecular target: T2, TTK kinase domain (residues 519–808) (Homo sapiens, UniProt P33981); experiment: Soaking of apo TTK kinase domain crystals with inhibitor, X-ray crystallography; type: binding; conditions: crystals soaked with 10–50 mM compound for 24 h
T2 construct: TTK kinase domain (residues 519–808); inferred from Ni-NTA purification with imidazole elution; made in house; host or cells: E. coli BL21 AI
T2 sequence (P33981 519-808): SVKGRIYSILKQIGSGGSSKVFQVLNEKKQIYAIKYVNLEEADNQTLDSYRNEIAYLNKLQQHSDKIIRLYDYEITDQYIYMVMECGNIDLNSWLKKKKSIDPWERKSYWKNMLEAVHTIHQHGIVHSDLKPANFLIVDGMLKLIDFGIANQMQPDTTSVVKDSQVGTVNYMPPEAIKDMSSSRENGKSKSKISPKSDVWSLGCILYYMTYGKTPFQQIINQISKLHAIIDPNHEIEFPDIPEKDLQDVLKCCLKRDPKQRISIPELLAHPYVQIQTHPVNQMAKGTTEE
Description: In recognition of the desirability of protein–ligand crystal structures to educate the efficient follow-up of fragment-like hit matter and our wish to determine the mode of binding of hits identified with the scaffold-focused virtual screen, we sought co-crystal structures of confirmed hits with TTK. To this end, apo crystals of TTK kinase domain were soaked in buffer solution containing the respective inhibitor (2–9). X-ray data were collected for all crystals, and the structures were solved using molecular replacement. We successfully obtained co-crystal structures of TTK with fragment-like hit compounds 3, 4, 5, and 7. […] A summary of crystallographic analysis is presented in Table 4, and the binding modes of compounds 3, 4, 5, and 7 are illustrated in Figure 7 with Fo–Fc electron density omit maps surrounding the ligand shown in green wire-mesh contoured at 3σ. In all four structures, the activation loop of TTK is disordered, possibly due to the presence of a PEG molecule bound to Lys553, a residue which would usually coordinate with Glu571 to help stabilize the activation loop (Lys553 is not shown in Figure 7 for clarity).
TTK was purified and crystallized as described previously.[26] Plasmids for expression of TTK were received from Stefan Knapp, Structural Genomics Consortium, Oxford, U.K. TTK kinase domain (residues 519–808) was expressed in E. coli BL21 AI competent cells (Invitrogen, Life Technologies Ltd., Paisley, U.K.). Cells were cultured in LB media containing kanamycin selection antibiotic and induced with 0.5 mM IPTG and 1g/L L-arabinose at an OD280 of 0.7. Cells were then incubated overnight at 18 °C with shaking at 225 rpm. Cells were harvested and resuspended in lysis buffer containing 50 mM HEPES pH 7.5, 500 mM NaCl, 10 mM imidazole, 5% (v/v) glycerol, lysozyme, and 1 Roche EDTA free complete protease inhibitor cocktail tablet (Roche, Basel, Switzerland) per 3 L of buffer. TTK was purified using Ni–NTA nickel affinity resin and washed in buffer containing 30 mM imidazole. TTK was then eluted from the resin with 250 mM imidazole. Eluate was concentrated using a Vivaspin concentrator with a 30 kDa molecular weight cutoff (GE Healthcare, Chalfont St. Giles, U.K.) and further purified on gel filtration column Superdex 200 16/60 (GE Healthcare, Chalfont St. Giles, U.K.) equilibrated in buffer containing 10 mM HEPES pH 7.5, 150 mM NaCl, 5 mM DTT, and 5 mM EDTA. The sample was concentrated to a final concentration of 8.9 mg/mL, snap frozen on dry ice, and stored at −80 °C until required.
Purified TTK was crystallized at 18 °C using the sitting drop vapor diffusion method with drops composed of 2 μL protein (8.9 mg/mL) and 2 μL reservoir solution placed over 200 μL reservoir solution of H2O/PEG300 (30–45% (v/v)) in 48 well plates. […]

An inhibition at 40 µM ([1]; compound at 40 μM, 1% DMSO) of 68 ± 1.41%, an inhibition at 400 µM ([1]; compound at 400 μM (fragment-like, MW < 300 Da)) of 55.5 ± 2.12% and an IC50 ([2]; 10% DMSO (asterisk), 3 nM TTK, 10 μM ATP, duplicate on the same plate) of 246 µM were found for Cc1ccc2[nH]c3c(N4CCCCC4)ncnc3c2c1 [Compound 9] in this work. The “LE (ligand efficiency)” value ([2]; from TTK IC50) was 0.25 and the “binding in ATP binding site of soaked TTK crystals (electron density)” value [3] was “not bound”.
